Results published in ChEMBL document CHEMBL1143954, “Characterization of thyroid hormone receptor alpha (TRalpha)-specific analogs with varying inner- and outer-ring substituents” (Bioorg Med Chem, 2008).

Legend:
[1] = molecular target: T1, Thyroid hormone receptor beta (Homo sapiens, UniProt P10828)
T1 sequence (P10828 whole entry): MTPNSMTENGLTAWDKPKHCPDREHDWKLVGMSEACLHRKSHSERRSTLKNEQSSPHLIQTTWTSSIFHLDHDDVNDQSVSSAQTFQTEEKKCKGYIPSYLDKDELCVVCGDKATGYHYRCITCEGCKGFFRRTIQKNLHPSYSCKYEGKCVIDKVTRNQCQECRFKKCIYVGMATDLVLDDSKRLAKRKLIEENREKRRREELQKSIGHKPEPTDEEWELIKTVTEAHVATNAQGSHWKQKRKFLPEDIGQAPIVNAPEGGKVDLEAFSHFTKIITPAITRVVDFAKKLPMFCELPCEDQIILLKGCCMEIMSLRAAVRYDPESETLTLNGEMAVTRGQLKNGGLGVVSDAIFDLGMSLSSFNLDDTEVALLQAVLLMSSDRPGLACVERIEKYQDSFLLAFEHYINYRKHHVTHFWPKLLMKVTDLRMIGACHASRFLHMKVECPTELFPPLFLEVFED

[2] = molecular target: T2, Thyroid hormone receptor alpha (Homo sapiens, UniProt P10827)
T2 sequence (P10827 whole entry): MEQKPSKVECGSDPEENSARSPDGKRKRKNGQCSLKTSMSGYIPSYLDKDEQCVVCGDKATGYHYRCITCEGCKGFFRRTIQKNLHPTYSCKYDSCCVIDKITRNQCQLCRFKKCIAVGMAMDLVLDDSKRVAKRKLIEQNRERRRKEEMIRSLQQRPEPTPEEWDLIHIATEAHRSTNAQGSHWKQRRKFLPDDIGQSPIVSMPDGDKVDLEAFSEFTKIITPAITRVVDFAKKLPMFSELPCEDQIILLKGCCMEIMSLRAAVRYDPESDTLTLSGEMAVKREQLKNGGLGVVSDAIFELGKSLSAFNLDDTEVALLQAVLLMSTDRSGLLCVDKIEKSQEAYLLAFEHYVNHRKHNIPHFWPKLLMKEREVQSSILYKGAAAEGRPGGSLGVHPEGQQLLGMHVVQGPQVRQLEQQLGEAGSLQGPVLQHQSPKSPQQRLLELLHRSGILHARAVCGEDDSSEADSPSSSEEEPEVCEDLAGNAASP
Description: Effect on human TRalpha transactivation activity in HeLa cells by luciferase reporter assay

[3] = molecular target: T2, Thyroid hormone receptor alpha; remark: listed apart in the source
Description: Effect on human TRalpha transactivation activity in U2OS cells by luciferase reporter assay

[4] = molecular target: T1, Thyroid hormone receptor beta; remark: listed apart in the source
[5] = molecular target: T2, Thyroid hormone receptor alpha; remark: listed apart in the source
[6] = molecular target: T1, Thyroid hormone receptor beta; remark: listed apart in the source

O=C1NC(=O)C(Cc2cc(I)c(Oc3ccc(O)c(Br)c3)c(I)c2)N1 (centres undefined)
Kd [1]: 68 nM
EC50 [2]: 44 nM
EC50 [3]: 206 nM
EC50 [4]: 5200 nM
Kd [5]: 43 nM
EC50 [6]: 530 nM

O=C1NC(=O)C(Cc2cc(I)c(Oc3ccc(O)c(I)c3)c(I)c2)N1 (centres undefined)
Kd [1]: 36 nM
EC50 [2]: 21 nM
EC50 [3]: 105 nM
EC50 [4]: 2000 nM
Kd [5]: 24 nM
EC50 [6]: 216 nM

O=C1NC(=O)C(Cc2cc(I)c(Oc3ccc(O)c(C4CC4)c3)c(I)c2)N1 (centres undefined)
Kd [1]: 49 nM
EC50 [2]: 39 nM
EC50 [3]: 145 nM
EC50 [4]: 2000 nM
Kd [5]: 25 nM
EC50 [6]: 100 nM

CC(C)c1cc(Oc2c(I)cc(CC3NC(=O)NC3=O)cc2I)ccc1O (centres undefined)
Kd [1]: 1.7 nM
EC50 [2]: 11 nM
EC50 [3]: 34 nM
EC50 [4]: 390 nM
Kd [5]: 1.2 nM
EC50 [6]: 58 nM

CC(C)c1cc(Oc2c(Br)cc(CC3NC(=O)NC3=O)cc2Br)ccc1O (centres undefined)
Kd [1]: 18.4 nM
EC50 [2]: 8.4 nM
EC50 [3]: 128 nM
EC50 [4]: 421 nM
Kd [5]: 17 nM
EC50 [6]: 32 nM

Cc1cc(Oc2c(I)cc(CC3NC(=O)NC3=O)cc2I)ccc1O (centres undefined)
Kd [1]: 53 nM
EC50 [2]: 27 nM
EC50 [3]: 146 nM
EC50 [4]: 4000 nM
Kd [5]: 42 nM
EC50 [6]: 180 nM

CCc1cc(Oc2c(I)cc(CC3NC(=O)NC3=O)cc2I)ccc1O (centres undefined)
Kd [1]: 18 nM
EC50 [2]: 10 nM
EC50 [3]: 87 nM
EC50 [4]: 1400 nM
Kd [5]: 15 nM
EC50 [6]: 27 nM

COc1cc(Oc2c(I)cc(CC3NC(=O)NC3=O)cc2I)ccc1O (centres undefined)
Kd [1]: 119 nM
EC50 [2]: 42 nM
EC50 [3]: 870 nM
EC50 [4]: 8000 nM
Kd [5]: 82 nM
EC50 [6]: 265 nM

O=C1NC(=O)C(Cc2cc(I)c(Oc3ccc(O)cc3)c(I)c2)N1 (centres undefined)
Kd [1]: 2000 nM
EC50 [2]: > 10000 nM
EC50 [3]: > 20000 nM
EC50 [4]: > 20000 nM
Kd [5]: 1700 nM
EC50 [6]: > 10000 nM
